Data as given in patent US9980943B2, “Methods of treating muscular dystrophy” (BOARD OF REGENTS OF THE NEVADA SYSTEM OF HIGHER EDUCATION, …, priority 2013, dated 2018).
Read-outs that look alike come from different tables or passages of the source. Blank lines part the entries; values can stand above or below the compound they belong to.

Tested on: α7 integrin (LacZ reporter in α7LacZ+/− myoblasts)
Assay: qHTS of the LOPAC library and MLSMR (online screen, α7LacZ+/− myoblasts)
Conditions: for activation at 0.307 µM / activation at 1.53 µM / activation at 7.66 µM / activation at 38.3 µM / Emax / EC50: Mus musculus, Myoblast; for activation at 0.307 µM: read-out: Activity at 0.307 uM [%] **; for activation at 1.53 µM: read-out: Activity at 1.530 uM [%] **; for activation at 7.66 µM: read-out: Activity at 7.660 uM [%] **; for activation at 38.3 µM: read-out: Activity at 38.30uM [%] **; for EC50: read-out: Fit LogAC50 (converted)
[1] = 48 h, read-out: Fit Infinite Activity [%]

Structure (SMILES): CC(C)(CC(=O)O)CC(=O)N1CCCN(c2nccc(C(F)(F)F)n2)CC1 [Compound 56]
activation at 0.307 µM (48 h): 24%
activation at 1.53 µM (48 h): 38.1%
activation at 7.66 µM (48 h): 86.7%
activation at 38.3 µM (48 h): 108%
Emax [1]: 111%
EC50: 3.98 µM
Emax (read-out: Max Response [%]): 108%

Structure (SMILES): COc1cc(CNCc2ccc(C(=O)O)cc2)ccc1OCc1ccc(F)cc1 [Compound 57]
activation at 0.307 µM (48 h): 1%
activation at 1.53 µM (48 h): 14.6%
activation at 7.66 µM (48 h): 82.2%
activation at 38.3 µM (48 h): 113%
Emax [1]: 115%
EC50: 4.47 µM
Emax (read-out: Max Response [%]): 113%

Structure (SMILES): COc1ccc(Nc2ncnc3ccc(C)cc23)cc1 [Compound 58]
activation at 0.307 µM (48 h): -29.7%
activation at 1.53 µM (48 h): 3.35%
activation at 7.66 µM (48 h): 49.1%
activation at 38.3 µM (48 h): 82.8%
Emax [1]: 95.6%
EC50: 3.55 µM
Emax (read-out: Max Response [%]): 82.8%

Structure (SMILES): COc1ccc(-n2c(C)c(C(C)=O)c3cc(OC(C)=O)ccc32)cc1 [Compound 59]
activation at 0.307 µM (48 h): 0%
activation at 1.53 µM (48 h): -6.19%
activation at 7.66 µM (48 h): 48.5%
activation at 38.3 µM (48 h): 184%
Emax [1]: 185%
EC50: 10 µM
Emax (read-out: Max Response [%]): 184%

Structure (SMILES): O=C(COC(=O)c1cc2ccccc2oc1=O)Nc1ccc(F)cc1F [Compound 60]
activation at 0.307 µM (48 h): -11%
activation at 1.53 µM (48 h): 4.45%
activation at 7.66 µM (48 h): 78.3%
activation at 38.3 µM (48 h): 115%
Emax [1]: 116%
EC50: 4.47 µM
Emax (read-out: Max Response [%]): 115%

Structure (SMILES): CCNC(=O)CSc1nc(-c2ccc(F)cc2)cs1 [Compound 61]
activation at 0.307 µM (48 h): -0.123%
activation at 1.53 µM (48 h): 25.8%
activation at 7.66 µM (48 h): 82.4%
activation at 38.3 µM (48 h): 126%
Emax [1]: 136%
EC50: 5.01 µM
Emax (read-out: Max Response [%]): 126%

EC50: 7.08 µM
Structure (SMILES): CC(C)NC(=O)CN1CCN(C(=O)CCl)CC1 [Compound 62]
activation at 0.307 µM (48 h): -21.4%
activation at 1.53 µM (48 h): -18%
activation at 7.66 µM (48 h): 77.9%
activation at 38.3 µM (48 h): 155%
Emax [1]: 162%
Emax (read-out: Max Response [%]): 155%

Structure (SMILES): CS(=O)(=O)N(Cc1ccc(C(=O)NC2CCCC2)cc1)c1ccccc1 [Compound 63]
activation at 0.307 µM (48 h): -3.95%
activation at 1.53 µM (48 h): 2.24%
activation at 7.66 µM (48 h): 57.8%
activation at 38.3 µM (48 h): 196%
Emax [1]: 199%
EC50: 10 µM
Emax (read-out: Max Response [%]): 196%

Structure (SMILES): C=CCN(CC=C)C(=O)c1ccc(OC2CCN(S(=O)(=O)N(C)C)CC2)cc1 [Compound 64]
activation at 0.307 µM (48 h): -6.4%
activation at 1.53 µM (48 h): 3.46%
activation at 7.66 µM (48 h): 95.1%
activation at 38.3 µM (48 h): 129%
Emax [1]: 130%
EC50: 5.01 µM
Emax (read-out: Max Response [%]): 129%

Structure (SMILES): O=C(O)CCn1cc(/C=C2/NC(=S)N(c3ccccc3)C2=O)c(-c2ccccc2)n1 [Compound 65]
Score: 45
activation at 0.307 µM (48 h): 8.21%
activation at 1.53 µM (48 h): 2.59%
activation at 7.66 µM (48 h): 27.2%
activation at 38.3 µM (48 h): 464%
Emax [1]: 501%
EC50: 20 µM
Emax (read-out: Max Response [%]): 464%

Structure (SMILES): CCc1nnc(NC(=O)c2ccc(S(=O)(=O)NCC(C)C)cc2)s1 [Compound 66]
activation at 0.307 µM (48 h): 16.2%
activation at 1.53 µM (48 h): 8.68%
activation at 7.66 µM (48 h): 32.8%
activation at 38.3 µM (48 h): 225%
Emax [1]: 227%
EC50: 12.6 µM
Emax (read-out: Max Response [%]): 225%

Structure (SMILES): CC1CCCCC12NC(=O)N(CC(=O)OCc1cccc(F)c1)C2=O (centres unmarked) [Compound 67]
activation at 0.307 µM (48 h): 6.4%
activation at 1.53 µM (48 h): 14.5%
activation at 7.66 µM (48 h): 69.8%
activation at 38.3 µM (48 h): 142%
Emax [1]: 162%
EC50: 10 µM
Emax (read-out: Max Response [%]): 142%

Structure (SMILES): CNc1nnc(SCC(=O)c2cc(C)n(C3CC3)c2C)s1 [Compound 68]
activation at 0.307 µM (48 h): -11.8%
activation at 1.53 µM (48 h): -22%
activation at 7.66 µM (48 h): 4.46%
activation at 38.3 µM (48 h): 220%
Emax [1]: 222%
EC50: 12.6 µM
Emax (read-out: Max Response [%]): 220%

EC50: 3.98 µM
Structure (SMILES): CCCCNc1nnc(SCC(=O)c2c(N)n(CCC)c(=O)[nH]c2=O)s1 [Compound 69]
activation at 0.307 µM (48 h): 0%
activation at 1.53 µM (48 h): 16.2%
activation at 7.66 µM (48 h): 62.8%
activation at 38.3 µM (48 h): 84.4%
Emax [1]: 88.1%
Emax (read-out: Max Response [%]): 84.4%

EC50: 4.47 µM
Structure (SMILES): C/C(=N\OCC(=O)OC(C)C(=O)Nc1ccc(C(N)=O)cc1)c1ccc2c(c1)OCO2 (centres unmarked) [Compound 70]
activation at 0.307 µM (48 h): -15.5%
activation at 1.53 µM (48 h): 4.11%
activation at 7.66 µM (48 h): 57.2%
activation at 38.3 µM (48 h): 89.5%
Emax [1]: 96.1%
Emax (read-out: Max Response [%]): 89.5%

Structure (SMILES): COc1cc(C(C(=O)NC2CCCCC2)N(C(=O)c2snc(C(N)=O)c2N)c2ccc(C)cc2)ccc1O (centres unmarked) [Compound 71]
activation at 0.307 µM (48 h): 0%
activation at 1.53 µM (48 h): 9.63%
activation at 7.66 µM (48 h): 58.8%
activation at 38.3 µM (48 h): 109%
Emax [1]: 122%
EC50: 7.94 µM
Emax (read-out: Max Response [%]): 109%

Structure (SMILES): CC1CCN(S(=O)(=O)c2ccc(S(=O)(=O)N3CCCC3)cc2)CC1 [Compound 72]
activation at 0.307 µM (48 h): 0.91%
activation at 1.53 µM (48 h): -2.48%
activation at 7.66 µM (48 h): 54.5%
activation at 38.3 µM (48 h): 132%
Emax [1]: 136%
EC50: 8.91 µM
Emax (read-out: Max Response [%]): 132%

Structure (SMILES): CCC(CC)C(=O)Nc1c(C(=O)N2CCN(c3ccccc3)CC2)oc2ccccc12 [Compound 73]
activation at 0.307 µM (48 h): 13.5%
activation at 1.53 µM (48 h): 18.6%
activation at 7.66 µM (48 h): 35.7%
activation at 38.3 µM (48 h): 185%
Emax [1]: 187%
EC50: 12.6 µM
Emax (read-out: Max Response [%]): 185%

Structure (SMILES): COc1ccc(CCNC(=O)c2nn(C)c3c2CS(=O)(=O)c2ccccc2-3)cc1OC [Compound 74]
activation at 0.307 µM (48 h): -22.8%
activation at 1.53 µM (48 h): -9.73%
activation at 7.66 µM (48 h): 56.7%
activation at 38.3 µM (48 h): 84.2%
Emax [1]: 86.2%
EC50: 4.47 µM
Emax (read-out: Max Response [%]): 84.2%

EC50: 3.98 µM
Structure (SMILES): COc1ccc(Nc2ncnc3ccc(Br)cc23)cc1OC [Compound 75]
activation at 0.307 µM (48 h): 28.1%
activation at 1.53 µM (48 h): 40%
activation at 7.66 µM (48 h): 79.7%
activation at 38.3 µM (48 h): 95.9%
Emax [1]: 98.4%
Emax (read-out: Max Response [%]): 95.9%

Structure (SMILES): CCOc1ccc2ccccc2c1C1NC(=O)N(C)C(C)=C1C(=O)OCCOC (centres unmarked) [Compound 76]
activation at 0.307 µM (48 h): -5.81%
activation at 1.53 µM (48 h): 5.65%
activation at 7.66 µM (48 h): 55.1%
activation at 38.3 µM (48 h): 97%
Emax [1]: 106%
EC50: 6.31 µM
Emax (read-out: Max Response [%]): 97%

Structure (SMILES): Cc1ccc(NC(=O)NCc2nc3ccccc3n2C)cc1 [Compound 77]
activation at 0.307 µM (48 h): -33.5%
activation at 1.53 µM (48 h): -19.7%
activation at 7.66 µM (48 h): 54.7%
activation at 38.3 µM (48 h): 85.1%
Emax [1]: 87.1%
EC50: 4.47 µM
Emax (read-out: Max Response [%]): 85.1%

EC50: 10 µM
Structure (SMILES): COc1ccc(C(=O)ONC(=N)c2cccc(C)c2)cc1OC [Compound 78]
activation at 0.307 µM (48 h): 10.1%
activation at 1.53 µM (48 h): 15.5%
activation at 7.66 µM (48 h): 69.8%
activation at 38.3 µM (48 h): 148%
Emax [1]: 163%
Emax (read-out: Max Response [%]): 148%

Structure (SMILES): CNc1cc([N+](=O)[O-])ccc1OCc1ccccc1 [Compound 79]
activation at 0.307 µM (48 h): 1.52%
activation at 1.53 µM (48 h): 16.2%
activation at 7.66 µM (48 h): 57.3%
activation at 38.3 µM (48 h): 80.2%
Emax [1]: 84.8%
EC50: 4.47 µM
Emax (read-out: Max Response [%]): 80.2%

Structure (SMILES): COC(=O)Cc1c(O)ccn(Cc2ccc3c(c2)OCO3)c1=O [Compound 80]
activation at 0.307 µM (48 h): -4.78%
activation at 1.53 µM (48 h): 4.56%
activation at 7.66 µM (48 h): 65.9%
activation at 38.3 µM (48 h): 146%
Emax [1]: 169%
EC50: 10 µM
Emax (read-out: Max Response [%]): 146%
